Assays:
ATXN3 pre-mRNA = assay: RT-qPCR Assay to Quantify Exon 4 Skipping in ATXN3 pre-mRNA in Cells; type: cell-based; details: percent exon 4 skipping in ATXN3 pre-mRNA, RT-qPCR of cell lysates; average IC50
Outline: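 Cells plated at 10,000/well onto a 7-point, 3.16-fold DMSO dilution series (duplicates), incubated 24 h at 37 °C, then lysed. Exon 4 skipping measured by one-step RT-qPCR (48 °C RT, 40 cycles); IC50 interpolated from dose-response fit of percent skipping.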

[1] = test system: Total ATXN3 (tATXN3) protein; assay: Endogenous Total ATXN3 (tATXN3) Protein Assay (MSD immunoassay of cell lysates); type: cell-based; details: average IC50, total ATXN3 protein in cell lysate after 48 h with compound (Table 1)
Outline: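 Cells in DMEM/10% FBS were plated at 10,000 per well onto 7-point, 3.16-fold compound dilutions in duplicate for 48 h at 37° C, then lysed. Total ATXN3 in lysates was measured by MSD sandwich immunoassay: mouse anti-ATXN3 capture, rabbit anti-ATXN3 detection, SULFO-TAG anti-rabbit. Average IC50 was reported in star bins.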

Compound | IC50 (ATXN3 pre-mRNA) | IC50 [1]
N[C@@H]1CC=CC[C@H]1c1sc2c(NCc3ccncc3)cc(Cl)nc2c1Cl [Compound 433, 2-((1R,6R)-6-aminocyclohex-3-en-1-yl)-3,5-dichloro-N-(pyridin-4-ylmethyl)thieno[3,2-b]pyridin-7-amine] | 0.03 to 0.3 µM | 0.03 to 0.3 µM
6-((1R,6R)-6-aminocyclohex-3-en-1-yl-2,2,3,4,5,5-d6)-7-bromo-2-chloro-N-(thiophen-2-ylmethyl)thieno[3,2-d]pyrimidin-4-amine [Compound 372] | 0.03 to 0.3 µM | 0.03 to 0.3 µM
2-((2R,3R)-3-aminotetrahydro-2H-pyran-2-yl)-N-benzyl-5-chlorothieno[3,2-b]pyridin-7-amine and 2-((2S,3S)-3-aminotetrahydro-2H-pyran-2-yl)-N-benzyl-5-chlorothieno[3,2-b]pyridin-7-amine [Compound 26] | 0.3 to 1 µM | 0.3 to 1 µM
C[C@@H]1C=C[C@H](C)[C@H](N)[C@H]1c1sc2c(NCc3ccco3)cc(Cl)nc2c1Cl [Compound 450, 2-((1S,2R,5S,6S)-6-amino-2,5-dimethylcyclohex-3-en-1-yl)-3,5-dichloro-N-(furan-2-ylmethyl)thieno[3,2-b]pyridin-7-amine] | 0.3 to 1 µM | 0.3 to 1 µM
N[C@@H]1CC=CC[C@H]1c1sc2c(NCc3cccs3)cc(Cl)nc2c1I.N[C@H]1CC=CC[C@@H]1c1sc2c(NCc3cccs3)cc(Cl)nc2c1I (mixture of isomers) [Compound 209, 2-((1R,6R)-6-aminocyclohex-3-en-1-yl)-5-chloro-3-iodo-N-(thiophen-2-ylmethyl)thieno[3,2-b]pyridin-7-amine and 2-((1S,6S)-6-aminocyclohex-3-en-1-yl)-5-chloro-3-iodo-N-(thiophen-2-ylmethyl)thieno[3,2-b]pyridin-7-amine] | ≤ 0.03 µM | ≤ 0.03 µM
N[C@H]1CCCC[C@H]1c1cc2nc(Cl)cc(NCc3cccs3)c2s1 [Compound 22, 2-((1R,2S)-2-aminocyclohexyl)-5-chloro-N-(thiophen-2-ylmethyl)thieno[3,2-b]pyridin-7-amine] | 0.3 to 1 µM | 0.3 to 1 µM
Cc1c([C@H]2CCCC[C@H]2N)sc2c(NCc3cccs3)cc(Cl)nc12 [Compound 51, 2-((1S,2R)-2-aminocyclohexyl)-5-chloro-3-methyl-N-(thiophen-2-ylmethyl)thieno[3,2-b]pyridin-7-amine] | > 1 µM | > 1 µM
Cc1c([C@H]2OCCC[C@@H]2N)sc2c(NCc3ccco3)nc(Cl)nc12 [Compound 62, 6-((2S,3S)-3-aminotetrahydro-2H-pyran-2-yl)-2-chloro-N-(furan-2-ylmethyl)-7-methylthieno[3,2-d]pyrimidin-4-amine] | ≤ 0.03 µM | 0.03 to 0.3 µM
Cc1c([C@@H]2CC=CC[C@H]2N)n(C(F)F)c2c(NCc3ccco3)nc(Cl)nc12.Cc1c([C@H]2CC=CC[C@@H]2N)n(C(F)F)c2c(NCc3ccco3)nc(Cl)nc12 (mixture of isomers) [Compound 358, 6-((1R,6R)-6-aminocyclohex-3-en-1-yl)-2-chloro-5-(difluoromethyl)-N-(furan-2-ylmethyl)-7-methyl-5H-pyrrolo[3,2-d]pyrimidin-4-amine and 6-((1S,6S)-6-aminocyclohex-3-en-1-yl)-2-chloro-5-(difluoromethyl)-N-(furan-2-ylmethyl)-7-methyl-5H-pyrrolo[3,2-d]pyrimidin-4-amine] | 0.03 to 0.3 µM | 0.03 to 0.3 µM
CC#CCNc1cc(Cl)nc2c(I)c([C@@H]3CC=CC[C@H]3N)sc12 [Compound 386, 2-((1R,6R)-6-aminocyclohex-3-en-1-yl)-N-(but-2-yn-1-yl)-5-chloro-3-iodothieno[3,2-b]pyridin-7-amine] | 0.03 to 0.3 µM | 0.03 to 0.3 µM
N[C@@H]1CCCC(F)(F)[C@H]1c1sc2c(NCc3cccs3)cc(Cl)nc2c1Cl [Compound 409, 2-((1S,6R)-6-amino-2,2-difluorocyclohexyl)-3,5-dichloro-N-(thiophen-2-ylmethyl)thieno[3,2-b]pyridin-7-amine] | 0.03 to 0.3 µM | 0.03 to 0.3 µM
N[C@@H]1CCCCC[C@H]1c1cc2nc(Cl)cc(NCc3cccs3)c2s1 [Compound 80, 2-((1R,2R)-2-aminocycloheptyl)-5-chloro-N-(thiophen-2-ylmethyl)thieno[3,2-b]pyridin-7-amine] | > 1 µM | > 1 µM
N[C@H]1CC=CC[C@@H]1c1sc2c(NCc3ccccc3)nc(Cl)nc2c1I [Compound 229, 6-((1S,6S)-6-aminocyclohex-3-en-1-yl)-N-benzyl-2-chloro-7-iodothieno[3,2-d]pyrimidin-4-amine] | ≤ 0.03 µM | ≤ 0.03 µM
2-((3R,4S)-3-aminotetrahydro-2H-pyran-4-yl)-3,5-dichloro-N-(furan-2-ylmethyl)thieno[3,2-b]pyridin-7-amine and 2-((3S,4R)-3-aminotetrahydro-2H-pyran-4-yl)-3,5-dichloro-N-(furan-2-ylmethyl)thieno[3,2-b]pyridin-7-amine [Compound 314] | 0.03 to 0.3 µM | 0.03 to 0.3 µM
5-(5-chloro-2-((1R,6R)-6-(dimethylamino)cyclohex-3-en-1-yl)-7-((thiophen-2-ylmethyl)amino)thieno[3,2-b]pyridin-3-yl)pent-4-yn-1-ol and 5-(5-chloro-2-((1S,6S)-6-(dimethylamino)cyclohex-3-en-1-yl)-7-((thiophen-2-ylmethyl)amino)thieno[3,2-b]pyridin-3-yl)pent-4-yn-1-ol [Compound 454] | 0.3 to 1 µM | 0.3 to 1 µM
N[C@@H]1CC=CC[C@H]1c1sc2c(NCc3ccccc3)nc(Cl)nc2c1I [Compound 414, 6-((1R,6R)-6-aminocyclohex-3-en-1-yl)-N-benzyl-2-chloro-7-iodothieno[3,2-d]pyrimidin-4-amine] | 0.03 to 0.3 µM | 0.3 to 1 µM
N[C@@H]1CCCCC[C@@H]1c1sc2c(NCc3cccs3)cc(Cl)nc2c1Cl [Compound 76, 2-((1S,2R)-2-aminocycloheptyl)-3,5-dichloro-N-(thiophen-2-ylmethyl)thieno[3,2-b]pyridin-7-amine] | > 1 µM | > 1 µM
N[C@@H]1CCC[C@@H](O)[C@H]1c1sc2c(NCc3cccs3)cc(Cl)nc2c1Br [Compound 355, (1R,2S,3R)-3-amino-2-(3-bromo-5-chloro-7-((thiophen-2-ylmethyl)amino)thieno[3,2-b]pyridin-2-yl)cyclohexan-1-ol] | 0.03 to 0.3 µM | 0.03 to 0.3 µM
2-((1R,6R)-6-aminocyclohex-3-en-1-yl)-5-chloro-3-methyl-N-(thiophen-2-ylmethyl)thieno[3,2-b]pyridin-7-amine and 2-((1S,6S)-6-aminocyclohex-3-en-1-yl)-5-chloro-3-methyl-N-(thiophen-2-ylmethyl)thieno[3,2-b]pyridin-7-amine [Compound 367] | 0.03 to 0.3 µM | 0.03 to 0.3 µM
Cc1c([C@H]2CCCC[C@@H]2N)sc2c(NCc3ccco3)cc(Cl)nc12 [Compound 231, 2-((1S,2S)-2-aminocyclohexyl)-5-chloro-N-(furan-2-ylmethyl)-3-methylthieno[3,2-b]pyridin-7-amine] | ≤ 0.03 µM | ≤ 0.03 µM
N[C@@H]1CC=CC[C@H]1c1c(I)c2nc(Cl)cc(NCc3cccs3)c2n1C(F)F [Compound 427, 2-((1R,6R)-6-aminocyclohex-3-en-1-yl)-5-chloro-1-(difluoromethyl)-3-iodo-N-(thiophen-2-ylmethyl)-1H-pyrrolo[3,2-b]pyridin-7-amine] | ≤ 0.03 µM | 0.03 to 0.3 µM
[2H]C1=C([2H])C([2H])([2H])[C@H](c2sc3c(NCc4ccco4)cc(Cl)nc3c2C)[C@@H](N)C1([2H])[2H] [Compound 212, 2-((1S,6S)-6-aminocyclohex-3-en-1-yl-2,2,3,4,5,5-d6)-5-chloro-N-(furan-2-ylmethyl)-3-methylthieno[3,2-b]pyridin-7-amine] | ≤ 0.03 µM | ≤ 0.03 µM
(1R,2S,3R)-2-amino-3-(5-chloro-3-methyl-7-((thiophen-2-ylmethyl)amino)thieno[3,2-b]pyridin-2-yl)cyclohexan-1-ol and (1S,2R,3S)-2-amino-3-(5-chloro-3-methyl-7-((thiophen-2-ylmethyl)amino)thieno[3,2-b]pyridin-2-yl)cyclohexan-1-ol [Compound 374] | 0.03 to 0.3 µM | 0.03 to 0.3 µM
6-((3R,4S)-3-aminotetrahydro-2H-pyran-4-yl)-7-bromo-2-chloro-N-(furan-2-ylmethyl)thieno[3,2-d]pyrimidin-4-amine and 6-((3S,4R)-3-aminotetrahydro-2H-pyran-4-yl)-7-bromo-2-chloro-N-(furan-2-ylmethyl)thieno[3,2-d]pyrimidin-4-amine [Compound 339] | 0.03 to 0.3 µM | 0.03 to 0.3 µM
N[C@H]1CCCCCC[C@H]1c1cc2nc(Cl)cc(NCc3cccs3)c2s1 [Compound 104, 2-((1R,2S)-2-aminocyclooctyl)-5-chloro-N-(thiophen-2-ylmethyl)thieno[3,2-b]pyridin-7-amine] | > 1 µM | > 1 µM
N[C@H]1CCOC[C@@H]1c1sc2c(NCc3cccs3)cc(Cl)nc2c1Cl [Compound 179, 2-((3R,4S)-4-aminotetrahydro-2H-pyran-3-yl)-3,5-dichloro-N-(thiophen-2-ylmethyl)thieno[3,2-b]pyridin-7-amine] | ≤ 0.03 µM | ≤ 0.03 µM
Cc1c([C@H]2CC=CC[C@@H]2N)sc2c(NCc3ccccc3)nc(Cl)nc12 [Compound 326, 6-((1S,6S)-6-aminocyclohex-3-en-1-yl)-N-benzyl-2-chloro-7-methylthieno[3,2-d]pyrimidin-4-amine] | 0.03 to 0.3 µM | 0.03 to 0.3 µM
